Measured values published in PubChem BioAssay (NCI).
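Five concentrations, 48 hours, 96-well plates. At the GI50, growth is halved. TGI denotes the concentration required for complete inhibition of growth.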

What was measured:
Experiment in all cases: inhibition of tumour cell growth, NCI panel, 48 h
HOP-92 NSCLC = tested on: HOP-92 NSCLC
MALME-3M melanoma = tested on: MALME-3M melanoma
786-0 renal = tested on: 786-0 renal
OVCAR-5 ovarian = tested on: OVCAR-5 ovarian
CCRF-CEM leukemia = tested on: CCRF-CEM leukemia
A498 renal = tested on: A498 renal
SK-MEL-2 melanoma = tested on: SK-MEL-2 melanoma
A549 NSCLC = tested on: A549 NSCLC
OVCAR-3 ovarian = tested on: OVCAR-3 ovarian
HCC-2998 colon = tested on: HCC-2998 colon
SN12C renal = tested on: SN12C renal
M14 melanoma = tested on: M14 melanoma
HCT-15 colon = tested on: HCT-15 colon
UACC-62 melanoma = tested on: UACC-62 melanoma
HL-60(TB) leukemia = tested on: HL-60(TB) leukemia
SNB-19 CNS = tested on: SNB-19 CNS
OVCAR-4 ovarian = tested on: OVCAR-4 ovarian
ACHN renal = tested on: ACHN renal
CAKI-1 renal = tested on: CAKI-1 renal
U251 CNS = tested on: U251 CNS
BT-549 breast = tested on: BT-549 breast
MCF7 breast = tested on: MCF7 breast
UACC-257 melanoma = tested on: UACC-257 melanoma
PC-3 prostate = tested on: PC-3 prostate
T-47D breast = tested on: T-47D breast
OVCAR-8 ovarian = tested on: OVCAR-8 ovarian
SK-MEL-28 melanoma = tested on: SK-MEL-28 melanoma
NCI-H226 lung = tested on: NCI-H226 lung
HOP-62 NSCLC = tested on: HOP-62 NSCLC
MDA-MB-231 breast = tested on: MDA-MB-231 breast
K-562 leukemia = tested on: K-562 leukemia
NCI-H23 lung = tested on: NCI-H23 lung
TK-10 renal = tested on: TK-10 renal
DU-145 prostate = tested on: DU-145 prostate
HCT-116 colon = tested on: HCT-116 colon
SF-268 CNS = tested on: SF-268 CNS
SR leukemia = tested on: SR leukemia
SF-295 CNS = tested on: SF-295 CNS
EKVX NSCLC = tested on: EKVX NSCLC
RPMI-8226 leukemia = tested on: RPMI-8226 leukemia
NCI-H460 lung = tested on: NCI-H460 lung
NCI/ADR-RES ovarian = tested on: NCI/ADR-RES ovarian
UO-31 renal = tested on: UO-31 renal
COLO 205 colon = tested on: COLO 205 colon
SF-539 CNS = tested on: SF-539 CNS
LOX IMVI melanoma = tested on: LOX IMVI melanoma
MDA-MB-435 = tested on: MDA-MB-435
SK-OV-3 ovarian = tested on: SK-OV-3 ovarian
SK-MEL-5 melanoma = tested on: SK-MEL-5 melanoma
IGROV1 ovarian = tested on: IGROV1 ovarian
RXF 393 renal = tested on: RXF 393 renal
SW-620 colon = tested on: SW-620 colon
NCI-H522 lung = tested on: NCI-H522 lung
KM12 colon = tested on: KM12 colon
MOLT-4 leukemia = tested on: MOLT-4 leukemia
HT29 colon = tested on: HT29 colon
HS 578T breast = tested on: HS 578T breast
SNB-75 CNS = tested on: SNB-75 CNS

## Nc1nc2c(c3cnccc13)C(c1cccc(Br)c1)Cc1cnccc1-2 (configuration not stated)
HOP-92 NSCLC
  GI50: 0.639 µM
  TGI: 16.7 µM
MALME-3M melanoma
  GI50: 0.515 µM
  TGI: 18.7 µM
786-0 renal
  GI50: 0.482 µM
  TGI: 12.6 µM
OVCAR-5 ovarian
  GI50: 0.875 µM
  TGI: 21.8 µM
CCRF-CEM leukemia
  GI50: 0.373 µM
  TGI: 14.1 µM
A498 renal
  GI50: 0.233 µM
  TGI: 0.824 µM
SK-MEL-2 melanoma
  GI50: 0.303 µM
  TGI: 1.91 µM
A549 NSCLC
  GI50: 0.627 µM
  TGI: 13.6 µM
OVCAR-3 ovarian
  GI50: 0.339 µM
  TGI: 14.1 µM
HCC-2998 colon
  GI50: 3.62 µM
  TGI: 18.8 µM
SN12C renal
  GI50: 0.877 µM
  TGI: 22.9 µM
M14 melanoma
  GI50: 0.215 µM
  TGI: 0.615 µM
HCT-15 colon
  GI50: 0.362 µM
  TGI: 10.5 µM
UACC-62 melanoma
  GI50: 0.406 µM
  TGI: 14.2 µM
HL-60(TB) leukemia
  GI50: 0.329 µM
  TGI: 0.961 µM
SNB-19 CNS
  GI50: 0.41 µM
  TGI: 15.2 µM
OVCAR-4 ovarian
  GI50: 1.73 µM
  TGI: 34.1 µM
ACHN renal
  GI50: 1.1 µM
  TGI: 12.5 µM
CAKI-1 renal
  GI50: 0.422 µM
  TGI: 14.4 µM
U251 CNS
  GI50: 0.342 µM
  TGI: 2.97 µM
BT-549 breast
  GI50: 0.526 µM
  TGI: 5.48 µM
MCF7 breast
  GI50: 0.324 µM
  TGI: 12.2 µM
UACC-257 melanoma
  GI50: 12.1 µM
  TGI: 27 µM
PC-3 prostate
  GI50: 0.46 µM
  TGI: 14 µM
T-47D breast
  GI50: 0.411 µM
  TGI: 40.4 µM
OVCAR-8 ovarian
  GI50: 0.78 µM
  TGI: 44.6 µM
SK-MEL-28 melanoma
  GI50: 3.81 µM
  TGI: 20.3 µM
NCI-H226 lung
  GI50: 0.949 µM
  TGI: 18.9 µM
HOP-62 NSCLC
  GI50: 0.465 µM
  TGI: 18.9 µM
MDA-MB-231 breast
  GI50: 1.11 µM
  TGI: 15.7 µM
K-562 leukemia
  GI50: 0.346 µM
  TGI: 17.4 µM
NCI-H23 lung
  GI50: 0.635 µM
  TGI: 14.1 µM
TK-10 renal
  GI50: 0.613 µM
  TGI: 13.6 µM
DU-145 prostate
  GI50: 0.344 µM
  TGI: 11.3 µM
HCT-116 colon
  GI50: 0.442 µM
  TGI: 11.4 µM
SF-268 CNS
  GI50: 0.852 µM
  TGI: 18.3 µM
SR leukemia
  GI50: 0.243 µM
  TGI: > 100 µM
SF-295 CNS
  GI50: 0.271 µM
  TGI: 1.95 µM
EKVX NSCLC
  GI50: 0.487 µM
  TGI: 21.5 µM
RPMI-8226 leukemia
  GI50: 0.392 µM
  TGI: 12.3 µM
NCI-H460 lung
  GI50: 0.37 µM
  TGI: 11.5 µM
NCI/ADR-RES ovarian
  GI50: 0.323 µM
  TGI: 10.2 µM
UO-31 renal
  GI50: 1.2 µM
  TGI: 15.5 µM
COLO 205 colon
  GI50: 0.273 µM
  TGI: 1.07 µM
SF-539 CNS
  GI50: 0.235 µM
  TGI: 0.821 µM
LOX IMVI melanoma
  GI50: 0.427 µM
  TGI: 13.7 µM
MDA-MB-435
  GI50: 0.154 µM
  TGI: 0.571 µM
SK-OV-3 ovarian
  GI50: 0.586 µM
  TGI: 17.1 µM
SK-MEL-5 melanoma
  GI50: 0.475 µM
  TGI: 3.45 µM
IGROV1 ovarian
  GI50: 0.85 µM
  TGI: 17.8 µM
RXF 393 renal
  GI50: 0.288 µM
  TGI: 0.953 µM
SW-620 colon
  GI50: 0.42 µM
  TGI: 17.4 µM
NCI-H522 lung
  GI50: 0.214 µM
  TGI: 0.62 µM
KM12 colon
  GI50: 0.436 µM
  TGI: 13.6 µM
MOLT-4 leukemia
  GI50: 0.418 µM
  TGI: 12.1 µM
HT29 colon
  GI50: 0.341 µM
  TGI: 1.79 µM
HS 578T breast
  GI50: 0.423 µM
  TGI: 29.2 µM
SNB-75 CNS
  GI50: 0.243 µM
  TGI: 12.7 µM

## Cc1c(NC(=O)c2cc(C(N)=O)nc3cc(F)ccc23)c(C(F)(F)F)nn1Cc1ccc(C#N)cc1
HOP-92 NSCLC
  GI50: 1.28 µM
  TGI: 18.1 µM
MALME-3M melanoma
  GI50: 14.4 µM
  TGI: 74.5 µM
786-0 renal
  GI50: 3.77 µM
  TGI: > 100 µM
OVCAR-5 ovarian
  GI50: 8.61 µM
  TGI: 97.5 µM
CCRF-CEM leukemia
  GI50: 0.167 µM
  TGI: > 100 µM
A498 renal
  GI50: 15.1 µM
  TGI: 62.4 µM
SK-MEL-2 melanoma
  GI50: 19.2 µM
  TGI: > 83.7 µM
A549 NSCLC
  GI50: 16.6 µM
  TGI: > 100 µM
OVCAR-3 ovarian
  GI50: 2.4 µM
  TGI: > 64.5 µM
HCC-2998 colon
  GI50: 5.16 µM
  TGI: > 100 µM
SN12C renal
  GI50: 1.59 µM
  TGI: > 72 µM
M14 melanoma
  GI50: 58.8 µM
  TGI: > 100 µM
HCT-15 colon
  GI50: 23 µM
  TGI: > 100 µM
UACC-62 melanoma
  GI50: 6.35 µM
  TGI: > 100 µM
HL-60(TB) leukemia
  GI50: 29.8 µM
  TGI: > 100 µM
SNB-19 CNS
  GI50: 3.44 µM
  TGI: 30 µM
OVCAR-4 ovarian
  GI50: 4.91 µM
  TGI: > 76.9 µM
ACHN renal
  GI50: 12.4 µM
  TGI: 71.1 µM
CAKI-1 renal
  GI50: 5.66 µM
  TGI: 35.1 µM
U251 CNS
  GI50: 1.67 µM
  TGI: 18.9 µM
BT-549 breast
  GI50: 1.78 µM
  TGI: 25.3 µM
MCF7 breast
  GI50: 0.276 µM
  TGI: 17.7 µM
UACC-257 melanoma
  GI50: > 95.3 µM
  TGI: > 100 µM
PC-3 prostate
  GI50: 0.451 µM
  TGI: 24.4 µM
T-47D breast
  GI50: 0.295 µM
  TGI: 31.3 µM
OVCAR-8 ovarian
  GI50: 7.02 µM
  TGI: > 100 µM
SK-MEL-28 melanoma
  GI50: 37.4 µM
  TGI: > 100 µM
NCI-H226 lung
  GI50: 13.4 µM
  TGI: > 100 µM
HOP-62 NSCLC
  GI50: 13.6 µM
  TGI: > 87.3 µM
MDA-MB-231 breast
  GI50: 17.8 µM
  TGI: > 100 µM
K-562 leukemia
  GI50: 13.1 µM
  TGI: > 100 µM
NCI-H23 lung
  GI50: 22.2 µM
  TGI: > 100 µM
TK-10 renal
  GI50: 3.2 µM
  TGI: > 53.6 µM
DU-145 prostate
  GI50: 1.1 µM
  TGI: > 56.4 µM
HCT-116 colon
  GI50: 2.84 µM
  TGI: > 100 µM
SF-268 CNS
  GI50: 14.3 µM
  TGI: > 69.3 µM
SR leukemia
  GI50: 48.8 µM
  TGI: > 100 µM
SF-295 CNS
  GI50: 10.4 µM
  TGI: 54.9 µM
EKVX NSCLC
  GI50: 21.9 µM
  TGI: > 100 µM
RPMI-8226 leukemia
  GI50: 0.0101 µM
  TGI: 3.67 µM
NCI-H460 lung
  GI50: 4.76 µM
  TGI: > 100 µM
NCI/ADR-RES ovarian
  GI50: 12.3 µM
  TGI: > 100 µM
UO-31 renal
  GI50: 1.78 µM
  TGI: > 100 µM
COLO 205 colon
  GI50: 0.504 µM
  TGI: 3.23 µM
SF-539 CNS
  GI50: 14.3 µM
  TGI: 49.6 µM
LOX IMVI melanoma
  GI50: 8.13 µM
  TGI: > 100 µM
MDA-MB-435
  GI50: 56.9 µM
  TGI: > 100 µM
SK-OV-3 ovarian
  GI50: 2.76 µM
  TGI: 21.4 µM
SK-MEL-5 melanoma
  GI50: 16.3 µM
  TGI: > 100 µM
IGROV1 ovarian
  GI50: 2.02 µM
  TGI: > 80.7 µM
RXF 393 renal
  GI50: 5.56 µM
  TGI: 28.8 µM
SW-620 colon
  GI50: 23.8 µM
  TGI: > 100 µM
NCI-H522 lung
  GI50: 18.3 µM
  TGI: > 64.4 µM
KM12 colon
  GI50: 0.512 µM
  TGI: > 37.9 µM
MOLT-4 leukemia
  GI50: 1.7 µM
  TGI: > 100 µM
HT29 colon
  GI50: 0.219 µM
  TGI: 1.91 µM
HS 578T breast
  GI50: 0.0592 µM
  TGI: 8.46 µM
SNB-75 CNS
  GI50: 5.8 µM
  TGI: 45.2 µM
